Data published in US10982284B2, “Compositions and methods APC, CREB, and BAD pathways to assess and affect cancer” (H. Lee Moffitt Cancer Center and Research Institute, Inc., priority 2011, dated 2021).

Experiments:
Assay in all cases: CellTiter-Blue cell viability assay
Assay type in all cases: cell-based, human
[1] = tested on: OV90; conditions: OV90 ovarian cancer cell line, 72 hours, 50% reduction in growth/viability
Source text: (§1) Ovarian cancer cell lines were obtained from the American Type Culture Collection (Manassas, Va.) (CAOV3, OV90, OVCAR3, SKOV3, TO[…]); from the European Collection of Cell Cultures, Salisbury, UK (A2780CP, A2780S); or from Kyoto University, Kyoto, Japan ([…], Tyknu, and TyknuC is R) or were kind gifts from Dr. Patricia Kruk, Department of Pathology, College of Medicine, University of South Florida, Tampa, Fla., and Susan Murphy, PhD, Dept of OBGYN/Division of GYN Oncology, Duke University, Durham, N.C. […] Cell lines were maintained in RPMI-1640 (Invitrogen, Carlsbad, Calif.) supplemented with 10% fetal bovine serum (Fisher Scientific, Pittsburgh, Pa.), 1% sodium pyruvate, 1% penicillin/streptomycin (Cellgro, Manassas, Va.), and 1% nonessential amino acids (HyClone, Hudson, N.H.). Mycoplasma testing was performed every 6 months following manufacturer's protocol (Lonza, Rockland, Me.). Drug activity was evaluated using a high-throughput CellTiter-Blue cell viability assay. […] After cell adherence, increasing concentrations of cisplatin, carboplatin (Sigma-Aldrich, St. Louis, Mo.), paclitaxel (Sequoia Research Products Ltd., Pangbourne, UK), or carboplatin plus paclitaxel (carbotaxol: constant molar ratio of carboplatin to paclitaxel of 20,000:1) were added to appropriate wells using an automated pipetting station. Four replicate wells were used for each drug concentration and vehicle controls. […] The cells were incubated with the drug for 72 hours, and 5 μL of CellTiter-Blue reagent (Promega Corp) was added to each well. Fluorescence was read at […] using a Synergy 4 microplate reader (Bio-Tek Instruments, Inc., Winooski, Vt.).

[2] = tested on: TOV112D; conditions: TOV112D ovarian cancer cell line, 72 hours, 50% reduction in growth/viability
Source text: as §1

[3] = tested on: M41CSR; conditions: M41CSR ovarian cancer cell line, 72 hours, 50% reduction in growth/viability
Source text: as §1

[4] = tested on: Ovary1847; conditions: Ovary1847 ovarian cancer cell line, 72 hours, 50% reduction in growth/viability
Source text: as §1

[5] = tested on: IMCC5; conditions: IMCC5 ovarian cancer cell line, 72 hours, 50% reduction in growth/viability
Source text: as §1

[6] = tested on: TyknuCisR; conditions: TyknuCisR ovarian cancer cell line, 72 hours, 50% reduction in growth/viability
Source text: as §1

[7] = tested on: CAOV2; conditions: CAOV2 ovarian cancer cell line, 72 hours, 50% reduction in growth/viability
Source text: as §1

[8] = tested on: OVCA429; conditions: OVCA429 ovarian cancer cell line, 72 hours, 50% reduction in growth/viability
Source text: as §1

[9] = tested on: HeyA8; conditions: HeyA8 ovarian cancer cell line, 72 hours, 50% reduction in growth/viability
Source text: as §1

[10] = tested on: OVCAR8; conditions: OVCAR8 ovarian cancer cell line, 72 hours, 50% reduction in growth/viability
Source text: as §1

[11] = tested on: BG1; conditions: BG1 ovarian cancer cell line, 72 hours, 50% reduction in growth/viability
Source text: as §1

[12] = tested on: M41; conditions: M41 ovarian cancer cell line, 72 hours, 50% reduction in growth/viability
Source text: as §1

[13] = tested on: IGR-OV1; conditions: IGR-OV1 ovarian cancer cell line, 72 hours, 50% reduction in growth/viability
Source text: as §1

[14] = tested on: OVCA432; conditions: OVCA432 ovarian cancer cell line, 72 hours, 50% reduction in growth/viability
Source text: as §1

[15] = tested on: CHIcisR; conditions: CHIcisR ovarian cancer cell line, 72 hours, 50% reduction in growth/viability
Source text: as §1

[16] = tested on: A2008; conditions: A2008 ovarian cancer cell line, 72 hours, 50% reduction in growth/viability
Source text: as §1

[17] = tested on: A2780CP; conditions: A2780CP ovarian cancer cell line, 72 hours, 50% reduction in growth/viability
Source text: as §1

[18] = tested on: OVCAR5; conditions: OVCAR5 ovarian cancer cell line, 72 hours, 50% reduction in growth/viability
Source text: as §1

[19] = tested on: C13; conditions: C13 ovarian cancer cell line, 72 hours, 50% reduction in growth/viability
Source text: as §1

[20] = tested on: OVCA420; conditions: OVCA420 ovarian cancer cell line; 72 hours; 50% reduction in growth/viability
Source text: as §1

[21] = tested on: IMCC3; conditions: IMCC3 ovarian cancer cell line; 72 hours; 50% reduction in growth/viability
Source text: as §1

For `CC(=O)O[C@H]1C(=O)[C@@]2(C)[C@H]([C@H](OC(=O)c3ccccc3)[C@]3(O)C[C@H](OC(=O)[C@H](O)[C@@H](NC(=O)c4ccccc4)c4ccccc4)C(C)=C1C3(C)C)[C@]1(OC(C)=O)CO[C@@H]1C[C@@H]2O` [Paclitaxel, paclitaxel], the IC50 ([1]; Homo sapiens, OV-90) was 0.108 µM, the IC50 ([2]; Homo sapiens) was 0.111 µM and the IC50 ([3]; Homo sapiens) was 0.0025 µM. It also gave an IC50 ([4]; Homo sapiens) of 0.0056 µM, an IC50 ([5]; Homo sapiens) of 0.0031 µM and an IC50 ([6]; Homo sapiens) of 0.0072 µM. For the same compound, the IC50 ([7]; Homo sapiens) was 0.0204 µM, the IC50 ([8]; Homo sapiens) was 0.0029 µM and the IC50 ([9]; Homo sapiens, HEY A8) was 0.0174 µM. It also gave an IC50 ([10]; Homo sapiens, OVCAR-8) of 0.0057 µM, an IC50 ([11]; Homo sapiens, BG-1) of 0.0055 µM and an IC50 ([12]; Homo sapiens) of 0.0063 µM. For the same compound, the IC50 ([13]; Homo sapiens, IGROV-1) was 0.0374 µM, the IC50 ([14]; Homo sapiens) was 0.0063 µM and the IC50 ([15]; Homo sapiens) was 0.0018 µM. The IC50 ([16]; Homo sapiens) was 0.0058 µM, the IC50 ([17]; Homo sapiens, A2780C/P) was 0.004 µM and the IC50 ([18]; Homo sapiens, OVCAR-5) was 0.0056 µM. It also gave an IC50 ([19]; Homo sapiens) of 0.0032 µM.

Compound `N.N.O=C([O-])C1(C(=O)[O-])CCC1.[Pt+2]` [Carboplatin, carboplatin] has an IC50 [1] of 213 µM, an IC50 [2] of 75.8 µM and an IC50 [3] of 48.2 µM. It also gave an IC50 [4] of 172 µM, an IC50 [5] of 41.3 µM and an IC50 [6] of 63.7 µM. The IC50 [7] was 70.2 µM, the IC50 [20] was 166 µM and the IC50 [8] was 225 µM. The IC50 [9] was 291 µM, the IC50 [10] was 56.1 µM and the IC50 [11] was 144 µM. The IC50 [12] was 41.6 µM, the IC50 [13] was 65.4 µM and the IC50 [14] was 63.1 µM. It also gave an IC50 [15] of 20 µM, an IC50 [16] of 20.2 µM and an IC50 [21] of 69.5 µM. It also gave an IC50 [17] of 94.2 µM, an IC50 [18] of 125 µM and an IC50 [19] of 56.8 µM.
